Results taken from the kinase profiling compilation of Christmann-Franck et al. (2016).

biological target: SGK1 (human) (UniProt O00141); experiment: Flashplate
Sequence (O00141 whole entry, looked up): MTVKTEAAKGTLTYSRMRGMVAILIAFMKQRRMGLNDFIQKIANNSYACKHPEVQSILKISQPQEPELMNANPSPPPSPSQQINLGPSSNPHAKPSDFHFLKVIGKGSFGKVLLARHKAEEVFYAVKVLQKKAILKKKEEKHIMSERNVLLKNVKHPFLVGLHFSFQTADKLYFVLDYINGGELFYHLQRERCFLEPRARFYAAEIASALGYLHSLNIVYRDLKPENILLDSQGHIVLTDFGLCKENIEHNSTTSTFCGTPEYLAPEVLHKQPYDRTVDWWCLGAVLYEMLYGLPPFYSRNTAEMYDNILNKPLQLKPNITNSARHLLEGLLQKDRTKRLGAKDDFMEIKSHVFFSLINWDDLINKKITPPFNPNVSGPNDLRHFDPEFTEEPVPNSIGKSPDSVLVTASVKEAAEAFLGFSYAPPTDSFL

Ki	SMILES
0.2 µM	CCn1c(-c2nonc2N)nc2cnc(Oc3cccc(NC(=O)c4ccc(OCCN5CCOCC5)cc4)c3)cc21
> 10 µM	Cc1ccc(NC(=O)Nc2ccc(-c3coc4ncnc(N)c34)cc2)cc1
> 10 µM	CC[C@@H]1C(=O)N(C)c2cnc(Nc3ccc(C(=O)NC4CCCCC4)cc3OC)nc2N1C1CCCC1
1 µM	Cc1cccc(Nc2nccc(Nc3c(N[C@H](C)C(C)(C)C)c(=O)c3=O)n2)c1
> 10 µM	C[C@@H](Nc1c(Nc2ccncc2)c(=O)c1=O)C(C)(C)C
0.794 µM	O=C(O)c1ccccc1Nc1ccnc(Nc2cccc(O)c2)n1
0.158 µM	Cc1n[nH]c2ccc(-c3cncc(OC[C@@H](N)Cc4cccc(Cl)c4)c3)cc12
> 10 µM	Cc1nccn2c(-c3ccnc(NCCC(C)(C)O)n3)c(-c3ccc(F)cc3F)nc12
3.98 µM	O=C1Nc2ccccc2Nc2nnc(I)cc21
> 10 µM	NCCNS(=O)(=O)c1cccc(C(=O)Nc2ccc(-c3n[nH]c(=O)c4ccccc34)cc2)c1
> 10 µM	OC(COc1cncc(/C=C/c2ccncc2)c1)Cc1c[nH]c2ccccc12 (stereo unspecified)
> 10 µM	Cc1c(O)cccc1NC(=O)c1cnn2c(-c3ccccc3)ccnc12
1 µM	COc1ccc(C(=O)Nc2n[nH]c3ccc(-c4cn(Cc5ccccc5)nn4)cc23)cc1OC
> 10 µM	CS(=O)(=O)N(Cc1ccc2[nH]c(=O)c3cccn3c2c1)C1CC1
> 10 µM	C/C(=N\NC(=O)c1nnn(-c2nonc2N)c1-c1ccccc1)c1ccco1
> 10 µM	CC(=O)c1cccc(-c2cnc3[nH]ccc3c2)c1
7.94 µM	NC(=O)c1cn(-c2ccc(O)cc2Cl)c2cc(-c3ccncc3)ccc2c1=O
0.1 µM	O=C(Nc1n[nH]c2ccc(-c3cn(Cc4ccccc4)nn3)cc12)c1cccc(F)c1
> 10 µM	CC(=O)N[C@@H]1CCN(c2nc3[nH]cc(C(=O)O)c(=O)c3c(C)c2F)C1
> 10 µM	O=C(Nc1ccc2cn[nH]c2c1)c1ccc(Cl)cc1
> 10 µM	CC(C)c1nnc2ccc(-c3c(-c4ccc(F)cc4F)nc4occn34)nn12
2 µM	Nc1ncnc2c1c(I)nn2[C@H]1CC[C@@H](O)CC1
> 10 µM	N#Cc1ccc(-c2n[nH]c3c2Cc2ccc(OCCCCN4CCOCC4)cc2-3)cn1
0.631 µM	O=C(Nc1cnc2[nH]cc(-c3ccccc3)c2c1)c1c(F)cccc1F
> 10 µM	N#Cc1ccc(NC(=O)Nc2ccnc3cc(C(F)(F)F)ccc23)nc1
5.01 µM	NCCCOc1cc2c(c(-c3ccc(Nc4nc5ccc(Cl)cc5o4)cc3)c1)CNC2=O
> 10 µM	O=c1[nH]c2cnc(-n3cnc4ccc(F)cc43)nc2n1[C@@H]1CCOc2c(F)cccc21

Ki	SMILES
> 10 µM	CCc1nc(-c2cccc(C)c2)c(-c2ccnc(NC(=O)c3ccccc3)c2)s1
3.98 µM	O=C(O)c1cc2c(-c3ccccc3)cncc2s1
> 10 µM	CC(C)OC1=NNC(=O)/C1=C/c1c[nH]c2ccccc12
> 10 µM	NC(=O)c1cccc2[nH]c(-c3cccc(NCCN4CCCC4)n3)nc12
> 10 µM	COc1ccc(-c2cc3nccn3c(Nc3ccccc3C(N)=O)n2)cc1OC
> 10 µM	CC(C)S(=O)(=O)n1c(N)nc2ccc(-c3c(-c4ccc(F)cc4)nc4sccn34)cc21
> 10 µM	CC(C)NC(=O)COc1cccc(-c2nc(Nc3ccc4[nH]ncc4c3)c3ccccc3n2)c1
> 10 µM	CC(C)Oc1nccn2c(-c3ccnc(NCC(C)(C)O)n3)c(-c3ccc(F)cc3F)nc12
> 10 µM	CCN(CC)CCCNc1cccc(-c2nc3c(C(N)=O)cccc3[nH]2)n1
> 6.31 µM	CCOc1nc(C(=O)NCc2ccc(S(C)(=O)=O)cc2)cc(N)c1C#N
> 10 µM	COc1ccc(CNC(=O)Nc2ncc([N+](=O)[O-])s2)cc1
> 10 µM	Cc1nccn2c(-c3ccnc(NCC(C)(C)CO)n3)c(-c3ccc(F)cc3F)nc12
> 10 µM	Clc1ccc(-c2n[nH]cc2-c2ccncn2)cc1Cl
> 10 µM	COc1ccc(NC(=O)Nc2ccc(-c3cccc4onc(N)c34)cc2)cc1Cl
> 10 µM	Cc1cccc(Cl)c1-c1cccc2c(CCCOc3cccc4ccccc34)c(C(=O)NCCOCCOCCN)[nH]c12
> 10 µM	O=C(NC(CO)Cc1ccc(Cl)cc1)c1ccc(-c2ccncc2)cc1 (stereo unspecified)
5.01 µM	NC(=O)c1cc2c(-c3ccccc3)cncc2s1
> 10 µM	CCNc1nc2cc(Cl)c(OC)cc2nc1NCC
3.98 µM	NS(=O)(=O)c1cccc(Nc2ncc3ccn(Cc4ccccc4)c3n2)c1
> 10 µM	O=C(Cc1ccccc1)Nc1cccc(-c2nc3sccn3c2-c2ccnc(Nc3ccc(N4CCOCC4)cc3)n2)c1
> 10 µM	Cn1nc(N)c2c(-c3ccc(NC(=O)Nc4cccc(C(F)(F)F)c4)cc3)cncc21
2 µM	CCN(CC)CCNC(=O)/C=C/c1cnc(N)c2c(-c3ccc(NC(=O)Nc4cccc(C)c4)cc3)csc12
> 10 µM	Cc1nn(-c2ccccc2)c2c1c(=O)c1cc(Cl)ccc1n2O
5.01 µM	COc1ccc(/C=C2/S/C(=N/c3ccccc3)NC2=O)cc1O
> 10 µM	NC(=O)c1sc2ccc(Cl)c(Cl)c2c1NC(=O)c1ccc(Cl)cc1
0.398 µM	Nc1n[nH]c2cccc(-c3ccc(NC(=O)Nc4cc(C(=O)O)ccc4F)cc3)c12
> 10 µM	Cc1cccc(NC(=O)Nc2ccc(-c3csc4c(-c5cn[nH]c5)cnc(N)c34)cc2)c1

Ki	SMILES
0.398 µM	Nc1n[nH]c2cccc(-c3ccc(NC(=O)Nc4cc(CO)ccc4F)cc3)c12
1 µM	O=C(Nc1cnccn1)Nc1ccnc2cc(C(F)(F)F)ccc12
> 10 µM	CCCC(=O)Nc1n[nH]c2nc3ccccc3cc12
3.16 µM	Cc1ccc(Cn2cc(-c3ccc4[nH]ncc4c3)nn2)c(C)c1
5.01 µM	C[C@H](N)COc1cnc(Cl)c(/C=C/c2ccncc2)c1
> 10 µM	Cc1cccc(NC(=O)Nc2ccc(-c3csc4c(-c5cnn(C[C@@H](C)O)c5)cnc(N)c34)cc2)c1
> 10 µM	C#Cc1cccc(Nc2ncnc3cc(OCCOC)c(OCCOC)cc23)c1
7.94 µM	c1ccc(CSc2nc(-c3ccncc3)n[nH]2)cc1
7.94 µM	Nc1ccc(-c2csc3c(/C=C/c4nc5ccccc5[nH]4)cnc(N)c23)cc1
3.16 µM	O=C(NCc1ccccc1)c1ccc(-c2ccncc2)cc1
> 10 µM	CN(C(=O)C1CCCCC1)c1ccc2c(c1)nc(NC(=O)c1ccc(C#N)cc1)n2CCC(N)=O
> 10 µM	Cc1n[nH]c2c1C(c1ccccc1I)C(C#N)=C(N)O2 (stereo unspecified)
1.26 µM	C/C(=N/NC(=N)N)c1cc(NC(=O)c2cccc(C(=O)Nc3cc(/C(C)=N\NC(=N)N)cc(/C(C)=N/NC(=N)N)c3)c2)cc(/C(C)=N/NC(=N)N)c1
2 µM	O=c1c(NCc2cccc(C(F)(F)F)c2)c(Nc2ccncc2)c1=O
> 10 µM	OCCCn1cnc(-c2ccc(F)cc2)c1-c1ccncc1
> 10 µM	Cc1cccc(NC(=O)Nc2ccc(-c3csc4c(-c5cnn(C[C@H](C)O)c5)cnc(N)c34)cc2)c1
1.58 µM	Nc1nnc(-c2cc3c(Oc4ccc(Cl)cc4)cncc3s2)o1
> 10 µM	O=c1[nH]c2sccc2c2nc(-c3ccncc3)nn12
6.31 µM	CN1CCC(NC(=O)c2cc3c(-c4ccccc4)n[nH]c3s2)CC1
> 10 µM	O=c1[nH]sc2c1c(=O)c1cc(F)c(NCc3ccccc3)c(F)c1n2C1CC1
> 10 µM	NC(=O)c1c(OCc2c(F)cc(Br)cc2F)nsc1NC(=O)NCCCCN1CCCC1
> 10 µM	Cc1cc(C)cc(NC(=O)Nc2ccc(-c3cccc4sncc34)cc2)c1
2 µM	O=C1NC(=S)S/C1=C1\C(=O)Nc2ccc(Br)cc21
0.501 µM	NCCCn1cc(-c2cc(-c3cc4ccccc4s3)c3[nH]ncc3c2)c2nc(N)ncc21
> 10 µM	CN(C)S(=O)(=O)c1ccccc1-c1ccc2c(c1)Nc1ccccc1NC2=O
0.158 µM	CC(=O)Nc1cccc(CNc2c(Nc3ccc4[nH]ncc4c3)c(=O)c2=O)c1
0.631 µM	COc1cccc([C@@H](C)NC(=O)c2ccc(-c3ccncc3F)cc2OC)c1

Ki	SMILES
0.0251 µM	N[C@H](COc1cncc(-c2ccc3c(c2)/C(=C/c2ccco2)C(=O)N3)c1)Cc1c[nH]c2ccccc12
> 10 µM	COc1ccc(-c2ccc(NC(=O)Nc3ccc(F)c(C)c3)cc2)c2c(N)noc12
> 10 µM	O=C(O)c1ccc(N2C(=O)c3ccccc3C2=O)cc1O
> 10 µM	CC1=NN(c2cccc(Br)c2)C(=O)/C1=C/c1c(C)c(C#N)c2nc3ccccc3n2c1O
> 10 µM	Nc1ncnc2sc3c(c12)-c1ccc(NC(=O)Nc2ccccc2)cc1CC3
> 10 µM	COc1cc(-c2ccc3c(c2)Nc2ccc([N+](=O)[O-])cc2NC3=O)ccc1O
> 10 µM	CC(C)Oc1nccn2c(-c3ccnc(NCC(C)(C)CO)n3)c(-c3ccc(F)cc3F)nc12
> 10 µM	Nc1c(-c2ccccc2)c2cc(Cl)ccc2[nH]c1=O
> 10 µM	Cc1ccc(F)c(NC(=O)Nc2ccc(-c3cncc4c3c(N)nn4C)cc2)c1
> 10 µM	CCNC(=O)c1cnc(N)c2c(-c3ccc(NC(=O)Nc4cccc(F)c4)cc3)csc12
> 10 µM	Cc1cccc(NC(=O)Nc2ccc(-c3cccc4c3CNC4=O)cc2)c1
6.31 µM	CCN1CCN(c2ccc(Nc3nccc(-c4c(-c5cccc(C(=O)Nc6ccccc6F)c5)nc5ccccn45)n3)cc2)CC1
> 10 µM	N#Cc1ncc2nc1OCCCCCOc1cc(OCCO)c(Cl)cc1NC(=O)N2
> 10 µM	Cc1nnc(-c2cc3c(Oc4ccc(C(F)(F)F)cc4)cncc3s2)o1
> 10 µM	O=C(Cc1ccccc1)Nc1cccc(-c2nc3sccn3c2-c2ccnc(Nc3cccc(N4CCCC4=O)c3)n2)c1
> 10 µM	Cc1cnc(-c2cnc(NCCNc3ccc(C#N)cn3)nc2-c2ccc(Cl)cc2Cl)[nH]1
> 10 µM	CN1CCN(Cc2ccc3c(c2)Cc2c(-c4csc(C#CCOCC5CC5)c4)n[nH]c2-3)CC1
2.51 µM	Nc1n[nH]c2ccc(-c3nnn(Cc4ccccc4)c3-c3ccc(F)cc3)cc12
> 10 µM	NC(=O)c1sc(-n2cnc3ccccc32)cc1OCc1ccccc1C(F)(F)F
> 10 µM	Cc1cc(O)ccc1-n1cc(C(N)=O)c(=O)c2ccc(-c3ccncc3)cc21
> 10 µM	O=C(NCc1ccccc1)c1cccc(-c2cnc3[nH]ccc3c2)c1
> 10 µM	CN(C)c1cc2sncc2cc1NC(=O)C(=O)O
> 10 µM	NCCOc1cncc(/C=C/c2ccncc2)c1
3.98 µM	CS(=O)(=O)NCCOc1cncc(-c2ccc3cnccc3c2)c1

SMILES	Ki
N[C@H](COc1cncc(/C=C/c2ccncc2)c1)Cc1c[nH]c2ccccc12	7.94 µM
